Measurements taken from EP4800013A1, “PARG INHIBITOR” (Shanghai Qilu Pharmaceutical Research and Development …, priority 2023, dated 2025).

Tests used:
PARG = target: T1, PARG (Homo sapiens, UniProt Q86W56); experiment: Enzymatic inhibitory activity against PARG, HTRF assay; format: biochemical; conditions: HTRF; PARylated PARP1 protein as substrate; 60 minutes at room temperature; read-out: IC50 against PARG enzyme
T1 construct: made in house
Procedure: In this experiment, the enzymatic inhibitory activity of the compounds of the present disclosure against PARG was determined using an HTRF (homogeneous time-resolved fluorescence) assay.
HTRF assay reagents were purchased from PerkinElmer (Cat. Nos. 61HISTLB and 610SAXLB). The purified protein was prepared in-house.
PARG enzyme reaction buffer: 50 mM Tris (pH 7.4), 0.1 mg/mL BSA, 3 mM EDTA, 0.4 mM EGTA, 1 mM DTT, 50 mM KCl, and 0.01% Tween 20.
• 1) Using an ultra-micro pipette, the compounds of the present disclosure were serially diluted (starting at 10 µM with 3- to 5-fold serial dilutions) and added to a 384-well reaction plate, with each concentration tested in duplicate wells. Control group 1 was added with 10 µM control compound (100% inhibition group). Control group 2 was added with DMSO (0% inhibition group). After compound addition, the 384-well plate was centrifuged at 1000 rpm for 1 minute. • 2) 2.5 µL of PARG protein was added to each well and incubated with the compounds of the present disclosure at room temperature for 15 minutes, followed by centrifugation at 1000 rpm for 1 minute. • 3) 2.5 µL of PARylated PARP1 protein was added to each well and incubated at room temperature for 60 minutes, followed by centrifugation at 1000 rpm for 1 minute. • 4) 5 µL of His-Tb & SA-XL665 HTRF assay reagents were added to each well and incubated at room temperature for 60 minutes, followed by centrifugation at 1000 rpm for 1 minute. • 5) […] were measured using a PHERAstar FSX microplate reader from BMG. • 6) Data analysis was performed using GraphPad Prism 8. The IC50 values of the compounds of the present disclosure were calculated as follows. […] The average value of duplicate wells in control group 2 (0% inhibition group) was set as the relative inhibition rate of 0%. The HTRF signal values were converted into relative inhibition rates. The IC50 values of the compounds were calculated by fitting the data to a four-parameter logistic model. Table 15: Enzymatic inhibitory activity of the compounds of the present disclosure against PARG

KURAMOCHI cells = experiment: Inhibition of proliferation of KURAMOCHI cells (CellTiter-Glo, intracellular ATP); format: cell-based; conditions: 168 h, incubated for 7 days, read-out: IC50 against KURAMOCHI cells
Procedure: In this experiment, the inhibitory effect of the compounds of the present disclosure on the proliferation of the cancer cell line KURAMOCHI was evaluated by measuring intracellular ATP levels using a bioluminescent assay, and the half maximal inhibitory concentration (IC50) was determined.
RPMI 1640 medium (Cat. No. 11875-093), fetal bovine serum (10099-141), and 100× Pen/Strep (15070-063) were purchased from GIBCO. CellTiter-Glo Luminescent Cell Viability Assay reagent (Cat. No. G7573) was purchased from Promega.
• 1) Day 1: KURAMOCHI cells were counted using a cell counter and seeded into a 96-well culture plate at a density of 4000 cells per well in 100 µL medium. The plate was incubated overnight in an incubator (37°C, 5% CO2). • 2) Day 2: Using a D300e digital dispenser (TECAN), 500 nL of serially diluted test compounds of the present disclosure (starting at 10 µM, a total of 9 concentrations, 1:4 dilution) were added to the cells in the culture plate. The final concentration of DMSO was 0.5%. The cell culture plate was incubated for 7 days in a cell culture incubator (37°C, 5% CO2). Control group 1 received only medium and DMSO (100% inhibition group). Control group 2 received only DMSO (0% inhibition group). The final concentration of DMSO in both groups was 0.5%. • 3) Day 9: 100 µL of CellTiter-Glo reagent was added to each well. The plate was shaken at 500 rpm for 2 minutes, centrifuged at 1000 rpm for 1 minute, and then incubated at room temperature in the dark for 10 minutes to stabilize the luminescence signal. • 4) Luminescence signals were measured using an EnVision microplate reader (PerkinElmer). • 5) Data analysis was performed using GraphPad Prism 8. The IC50 values of the compounds of the present disclosure were calculated as follows. The CTG signal values were analyzed. The average inhibition rate of control group 1 (100% inhibition group) was set as the relative inhibition rate of 100%. The average inhibition rate of control group 2 (0% inhibition group) was set as the relative inhibition rate of 0%. The CTG signal values were converted into relative inhibition rates. The inhibition percentage (inhibition%) for each concentration of the compounds of the present disclosure was calculated according to the following formula: Inhibition% = (b−x)/(b−a)*100%; [formula] • a = CTG value (highest concentration), b = CTG value (blank well), x = CTG value (test well). • IC50 was calculated using GraphPad Prism 8. • (1) The concentration and inhibition rate corresponding to each well were recorded. Statistical calculation was performed using Log10 (compound concentration). • (2) The data were input into GraphPad Prism 8 and Analysis was selected. • (3) Nonlinear regression (curve fit) was selected. • (4) Log (inhibitor) vs. response - Variable slope was selected. • (5) The calculation formula was selected, and the calculation was performed according to the following formula: Y = Bottom + (Top - Bottom) / (1 + 10 ^ ((LogIC50 - X) * HillSlope)); X: log of dose or concentration; Y: response; Top and Bottom: maximum and minimum response. • (6) The IC50 values were calculated by fitting the data. Table 16: Inhibitory effect of the compounds of the present disclosure on the proliferation of KURAMOCHI cells

T1 sequence (Q86W56 whole entry): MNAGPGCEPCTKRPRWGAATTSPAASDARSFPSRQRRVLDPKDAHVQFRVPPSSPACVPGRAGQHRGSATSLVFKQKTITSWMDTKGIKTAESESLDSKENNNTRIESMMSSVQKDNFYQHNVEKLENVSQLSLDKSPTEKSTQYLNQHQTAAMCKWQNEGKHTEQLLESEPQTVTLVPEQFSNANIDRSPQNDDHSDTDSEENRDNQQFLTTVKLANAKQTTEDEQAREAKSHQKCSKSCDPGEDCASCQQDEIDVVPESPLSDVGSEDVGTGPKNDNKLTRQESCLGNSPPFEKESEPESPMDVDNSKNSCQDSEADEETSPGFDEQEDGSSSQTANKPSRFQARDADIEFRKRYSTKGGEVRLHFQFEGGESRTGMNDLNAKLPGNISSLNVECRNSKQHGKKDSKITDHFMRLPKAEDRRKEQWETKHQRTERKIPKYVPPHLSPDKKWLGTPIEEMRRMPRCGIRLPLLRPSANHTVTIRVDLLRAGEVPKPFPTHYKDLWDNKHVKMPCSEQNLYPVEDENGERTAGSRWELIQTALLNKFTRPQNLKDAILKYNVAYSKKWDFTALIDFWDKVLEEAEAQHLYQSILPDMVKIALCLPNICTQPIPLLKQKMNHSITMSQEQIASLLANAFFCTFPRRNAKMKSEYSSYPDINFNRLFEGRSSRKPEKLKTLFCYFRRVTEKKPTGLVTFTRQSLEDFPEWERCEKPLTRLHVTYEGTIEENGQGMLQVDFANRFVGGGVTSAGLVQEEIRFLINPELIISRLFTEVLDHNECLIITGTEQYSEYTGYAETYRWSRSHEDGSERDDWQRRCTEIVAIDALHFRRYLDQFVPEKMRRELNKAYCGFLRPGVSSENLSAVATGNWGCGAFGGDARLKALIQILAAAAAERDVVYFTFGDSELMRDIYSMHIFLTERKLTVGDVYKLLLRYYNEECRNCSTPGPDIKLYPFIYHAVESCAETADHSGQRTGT

Structure (SMILES) | IC50 (PARG) [nM] | IC50 (KURAMOCHI cells) [nM]
C=CCn1c(=O)n(-c2nnc(C(F)F)s2)c2cc(S(=O)(=O)NC3(C#N)CC3)cc(N3CCN(C(=O)[C@@H](C)CC)CC3)c21 [Compound 067W2] | 13.1 | 11
C=CCn1c(=O)n(-c2nnc(C(F)F)s2)c2cc(S(=O)(=O)NC3(C#N)CC3)cc(N3CCN(C(=O)[C@H](C)CC)CC3)c21 [Compound 067Wl] | 19.7 | 23
C=CCn1c(=O)n(-c2nnc(C(F)F)s2)c2cc(S(=O)(=O)NC3(C#N)CC3)cc(N3CCN(C(=O)C4CCCC4)CC3)c21 [Compound 067X] | 21.1 | 23
C=CCn1c(=O)n(-c2nnc(C(F)F)s2)c2cc(S(=O)(=O)NC3(C#N)CC3)cc(N3CCN(C(=O)C4(C)CC4)CC3)c21 [Compound 067Y] | 21.2 | 34
C=CCn1c(=O)n(-c2nnc(C(F)F)s2)c2cc(S(=O)(=O)NC3(CF)CC3)cc(N3CCN(C(=O)C(C)C)CC3)c21 [Compound 068A] | 3.5 | 4
C=CCn1c(=O)n(-c2nnc(C(F)F)s2)c2cc(S(=O)(=O)NC3(C)COC3)cc(N3CCN(C(=O)C(C)C)CC3)c21 [Compound 068B] | 15.8 | 17
C=CCn1c(=O)n(-c2nnc(C(F)(F)F)s2)c2cc(S(=O)(=O)NC3(C#N)CC3)cc(N3CCN(C(=O)C(C)C)CC3)c21 [Compound 070A] | 15.3 | 18
C=CCn1c(=O)n(-c2nnc(C(F)(F)F)s2)c2cc(S(=O)(=O)NC3(C#N)CC3)cc(N3CCN(C(=O)C(C)(C)O)CC3)c21 [Compound 070B] | 20.3 | 25
C=CCn1c(=O)n(-c2nnc(C(F)F)s2)c2cc(S(=O)(=O)NC3(C#N)CC3)cc(N3CCN(C(=O)C(C)(C)O)[C@H](C)C3)c21 [Compound 071C2] | 8.9 | 50
C=CCn1c(=O)n(-c2nnc(C(F)F)s2)c2cc(S(=O)(=O)NC3(C#N)CC3)cc(N3CCN(C(=O)C4CCOC4)CC3)c21 (stereo not shown) [Compound 072B] | 15.9 | 53
C=CCn1c(=O)n(-c2nnc(C(F)F)s2)c2cc(S(=O)(=O)NC3(C#N)CC3)cc(N3CCN(C(=O)C(C)(O)C(F)(F)F)CC3)c21 (stereo not shown) [Compound 073A] | 30.6 | 34
C=CCn1c(=O)n(-c2nnc(C(F)F)s2)c2cc(S(=O)(=O)NC3(C#N)CC3)cc(N3CCN(C(=O)C4(O)CCC4)CC3)c21 [Compound 073B] | 4.5 | 22
C=CCn1c(=O)n(-c2nnc(C(F)F)s2)c2cc(S(=O)(=O)NC3(C#N)CC3)cc(N3CCN([S+]([O-])C(C)(C)C)CC3)c21 (stereo not shown) [Compound 074A-11] | 2.8 | 4
C=CCn1c(=O)n(-c2nnc(C(F)F)s2)c2cc(S(=O)(=O)NC3(C#N)CC3)cc(N3CCN(S(=O)(=O)C(C)(C)C)CC3)c21 [Compound 074A] | 0.8 | 1
C=CCn1c(=O)n(-c2nnc(C(F)F)s2)c2cc(S(=O)(=O)NC3(C#N)CC3)cc(N3CCN(S(=O)(=O)C4(C)CC4)CC3)c21 [Compound 074B] | 2.7 | 3
C=CCn1c(=O)n(-c2nnc(C(F)F)s2)c2cc(S(=O)(=O)NC3(C#N)CC3)cc(N3CCN(S(=O)(=O)C4CCOC4)CC3)c21 (stereo not shown) [Compound 074C] | 2.9 | 13

Structure (SMILES) | IC50 (PARG) [nM] | IC50 (KURAMOCHI cells) [nM]
C=CCn1c(=O)n(-c2nnc(C(F)F)s2)c2cc(S(=O)(=O)NC3(C#N)CC3)cc(N3CCN(S(=N)(=O)C(C)C)CC3)c21 (stereo not shown) [Compound 074G] | 3.3 | 40
C=CCn1c(=O)n(-c2nnc(C(F)F)s2)c2cc(S(=O)(=O)NC3(C#N)CC3)cc(N3CCN(S(=O)(=O)N(C)C)CC3)c21 [Compound 074H] | 7.5 | 12
C#CCn1c(=O)n(-c2nnc(C(F)F)s2)c2cc(S(=O)(=O)NC3(C#N)CC3)cc(N3CCN(C(=O)C(C)C)CC3)c21 [Compound 074K] | 1.9 | 8
C=CCn1c(=O)n(-c2nnc(C(F)F)s2)c2cc(S(=O)(=O)NC3(C#N)CC3)cc(N3CCN([S+]([O-])C(C)C)CC3)c21 (stereo not shown) [Compound 074M] | 6.2 | 16
C=CCn1c(=O)n(-c2nnc(C(F)F)s2)c2cc(S(=O)(=O)NC3(C#N)CC3)cc(N3CCN(C(=O)C4CCCN4C(=O)OC)CC3)c21 (stereo not shown) [Compound 076E] | 4.9 | 35
C=CCn1c(=O)n(-c2nnc(C(F)F)s2)c2cc(S(=O)(=O)NC3(C#N)CC3)cc(N3CCN(C(=O)[C@@H]4CCCO4)CC3)c21 [Compound 076H1] | 14.4 | 34
C=CCn1c(=O)n(-c2nnc(C(F)F)s2)c2cc(S(=O)(=O)NC3(C#N)CC3)cc(N3CCN(C(=O)[C@H]4CCCO4)CC3)c21 [Compound 076H2] | 14 | 40
C=CCn1c(=O)n(-c2nnc(C(F)F)s2)c2cc(S(=O)(=O)NC3(C#N)CC3)cc(N3CCN(C(=O)C4(C)CCCO4)CC3)c21 (stereo not shown) [Compound 076J] | 7 | 9
C[C@H]1CN(c2cc(S(=O)(=O)NC3(C#N)CC3)cc3c2nc(OC2CC2)n3-c2nnc(C(F)F)s2)C[C@H](C)N1 [Compound 077A] | 10.4 | 11
C[C@H]1CN(c2cc(S(=O)(=O)NC3(C)CC3)cc3c2nc(C2CCCO2)n3-c2nnc(C(F)F)s2)C[C@H](C)N1 (stereo partly shown) [Compound 077B] | 3.4 | 7
C[C@H]1CN(c2cc(S(=O)(=O)NC3(C)CC3)cc3c2nc(OC2CC2)n3-c2nnc(C(F)F)s2)C[C@H](C)N1 [Compound 077F] | 9.2 | 9
CC(C)Oc1nc2c(N3C[C@H](C)N[C@@H](C)C3)cc(S(=O)(=O)NC3(C)CC3)cc2n1-c1nnc(C(F)F)s1 [Compound 077G] | 1.6 | 2
CC(C)Oc1nc2c(N3C[C@H](C)N[C@@H](C)C3)cc(S(=O)(=O)NC3(C#N)CC3)cc2n1-c1nnc(C(F)F)s1 [Compound 077H] | 3 | 5
C[C@H]1CN(c2cc(S(=O)(=O)NC3(C)CC3)cc3c2nc(C2COCCO2)n3-c2nnc(C(F)F)s2)C[C@H](C)N1 (stereo partly shown) [Compound 077N] | 3.4 | 8
COCc1nc2c(N3C[C@H](C)N[C@@H](C)C3)cc(S(=O)(=O)NC3(C)CC3)cc2n1-c1nnc(C(F)F)s1 [Compound 077T] | 27.8 | 35
C[C@H]1CN(c2cc(S(=O)(=O)NC3(C)CC3)cc3c2nc(N2CCOCC2)n3-c2nnc(C(F)F)s2)C[C@H](C)N1 [Compound 077V] | 21.7 | 37
